How the values were obtained:
Notch1 = test: Notch activation (Notch1IC / Notch ICD) immunocytochemical detection; type: cell-based, mouse; conditions: Insulin withdrawal, 2 days and then treat for 1 h
Excerpt: Antibodies were used that specifically bind: Notch1IC (Chemicon, 5352), GFP (Molecular Probes, A11122), Oct3/4 (Santa Cruz, sc-5279), SSEA1 and SSEA4 (Developmental Studies HybridomaBank), Tra-1-60 (Chemicon, MAB4360), Tra-1-81 (Chemicon, MAB4381), human nestin (Chemicon, MAB5326), Sox-1 (Gift from Dr. R Lovell-Badge), TH (Pel-Freez, P40101-0), Tuj1 (Covance, MMS-435P), rat nestin (McKay Lab), GFAP (Dako, z0334), CNPase (Chemicon, MAB326), BrdU (Accurate, H5903), DCX (Santa Cruz, sc-8066), Sox2 (R&D, MAB2018), Hu (Molecular Probes, A21271).
To assay for Notch activation, cultures were treated with the Notch ligands for 1 hour and Notch1 activation was detected by immunocytochemical staining of Notch1IC (FIG. 1b).
It was determined that insulin facilitates Notch cleavage using immunocytochemical detection.

nucleostemin, SHH = test: Nucleostemin and SHH protein expression in CNS stem cells; type: cell-based, mouse
Excerpt: The interest in stem cell self-renewal mechanisms prompted analysis of potential down-stream components of the Notch/STAT3-Ser727 (Notch/sSTAT) pathway. Nucleostemin is a p53-binding protein expressed in self-renewing CNS stem cells and cancer cells (Tsai et al., J Neurosci 20:3725-35, 2000; Tsai et al., J Cell Biol 168:179-84, 2005). Sonic Hedgehog (SHH) is a protein with functions in fate specification and stem cell survival in the fetal and adult CNS (Palma et al., Development 132:335-44, 2005).
There are two forms of mRNA encoded by the Hes3 gene, Hes3a and Hes3b.

[1] = test system: adult mouse subventricular zone central nervous system stem cell cultures from wild-type mice; test: Survival of adult SVZ stem cell cultures, wild-type mice; type: cell-based
Protocol: (§1) It was determined that adult mouse subventricular zone central nervous system stem cell cultures from wild-type mice respond to D114 by generating twenty-four times more cells, whereas cultures from Hes3 knock-out mice respond to D114 by generating only three times more cells. Thus, in adult mouse neural stem cell cultures, D114 greatly promotes the survival of wild-type cells (23.7±1.7 fold increase), whereas it only slightly stimulates Hes3 knock-out culture survival (2.9±0.2 fold increase).

[2] = test system: cultures from Hes3 knock-out mice; test: Survival of adult SVZ stem cell cultures, Hes3 knock-out mice; type: cell-based, mouse; conditions: Hes3 knock-out culture
Protocol: as §1

[3] = test system: Primary human central nervous system neural stem cell from pediatric subventricular zones; test: Colony generation of primary human neural stem cells; type: cell-based; conditions: expanded in FGF2
Excerpt: Pharmacological Notch activation is beneficial also to primary neural stem cell cultures from non-cancerous human brain. Primary human central nervous system neural stem cell were produced from pediatric subventricular zones. These cells expanded in FGF2, and upon FGF2 withdrawal differentiated to produce colonies containing neurons, astrocytes, and oligodendrocytes (see Table 11). […] FGF2 withdrawal and subsequent differentiation of central nervous system neural stem cell cultures (fetal mouse) regulated Hes3 expression and STAT3 expression and phosphorylation in neurons, astrocytes, oligodendrocytes.

HSF6 hES cells = test: hES self-renewal over 3 passages; type: cell-based, human; conditions: 3 passages (3 weeks), daily treatments
Excerpt: To assess whether JAK inhibition was consistent with self-renewal of hES cells, HSF6 cells were continuously exposed to the JAK inhibitor by daily additions for three passages as single cells (three weeks) and analyzed for expression of antigens that distinguish the undifferentiated and differentiated states. The cells exposed to the drug, like the FGF2 controls, had normal morphology, were positive for Oct3/4, SSEA4, Tra-1-60, and Tra-1-81, and negative for SSEA1 (FIG. 5f, FIG. 11). To assess their ability to differentiate into neural precursors, embryoid bodies (EBs) were generated and many Sox1+/Nestin+ cells obtained (FIG. 11). Finally, to assess that the cells retained their ability to generate TH+ neurons, direct differentiation protocols were performed; a high proportion of TH+/TUJ1+ cells were obtained (FIG. 5g).

Molecule	Notch ICD (Notch1)	nucleostemin and SHH protein expression (nucleostemin, SHH)	survival, fold increase in cells [1] [fold]	survival, fold increase in cells [2] [fold]	colonies containing neurons, astrocytes, and oligodendrocytes [3]	morphology and antigenic profile (HSF6 hES cells)
Delta-4: soluble Notch ligand Delta-4 (1389-D4) from R&D	Low	induced nucleostemin and SHH protein expression	23.7±1.7	2.9±0.2	generated significantly more of these colonies	
CC(C)(C)c1nc2c3ccc(F)cc3c3c(=O)[nH]ccc3c2[nH]1 [JAK Inhibitor, 2-(1,1-Dimethylethyl)-9-fluoro-3,6-dihydro-7H-benz[h]-imidaz[4,5-f]isoquinolin-7-one]						retained normal morphology and antigenic profile of undifferentiated hES cells

Source: patent US20080242594A1, “Methods for Promoting Stem Cell Proliferation and Survival” (priority 2005, published 2008)
